Reference: patent publication US4201860A, “Purine derivatives” (Bristol-Myers Company, priority 1979, dated 1980)

Legend:
platelet aggregation = conditions: in words; Chem Pharm. Bull., 25(7), 1811-1821 (1977); cited from earlier work
[1] = system: arterial blood pressure / intratracheal pressure; experiment: Separation of bronchodilator and cardiovascular effects, ratio of hypotensive ED20 / bronchodilating ED50; format: in vivo, guinea pig
Procedure: (§1) The trachea of anesthetized guinea pig was cannulated and the ITP recorded on a polygraph under artificial ventilation. Arterial blood pressure (ABP; measure of hypotensive activity) was also measured during the experiment. Data was obtained for both intravenous and intraduodenal administration.
To assess the separation of desirable bronchodilator activity from undesirable cardiovascular (hypotensive) effect in the test compounds, the ratio of hypotensive ED20 /bronchodilating ED50 was calculated and indicated in Table 1.

[2] = system: Arterial blood pressure (ABP); experiment: In vivo hypotensive activity, arterial blood pressure (ABP) in anesthetized guinea pig; conditions: arterial blood pressure lowering (ED20, 20% reduction)
Procedure: as §1, with “Pharmac., 21, 379 (1969). The” for “The”

[3] = in words; known disadvantages; cited from earlier work
[4] = in words; cited from earlier work

Compound | ABP/ITP ([1]; Intravenous) | ABP lowering, ED20 (20% reduction) ([2]; Intravenous) | also measured
Nc1nc(SC2CCCC2)nc2c1ncn2C1CCCC1 |  |  | platelet aggregation inhibition (platelet aggregation): slightly effective
CCOc1nc(N)c2ncn(C3C=CCCC3)c2n1 (stereo not shown) [C2 H5 O] | 12 | 4.0 mg/kg | ABP/ITP ([1]; Intraduodenal): 19; ABP lowering, ED20 (20% reduction) ([2]; Intraduodenal): 12 mg/kg
CCOc1nc(N)c2ncn(C3CCCCC3)c2n1 [C2 H5 O] | 6.8 | 2.5 mg/kg | 
Nc1nc(Cl)nc2c1ncn2C1C=CCCC1 (stereo not shown) [Cl] | 17 | 2.5 mg/kg | 
Cn1c(=O)c2[nH]cnc2n(C)c1=O [aminophylline] |  |  | side effects [3]: gastric irritation and cardiovascular and central nervous system side effects; solubility [4]: readily soluble
CC(C)COc1nc(N)c2ncn(C3C=CCCC3)c2n1 (stereo not shown) [iso-C4 H9 O] |  | 2.4 mg/kg | 
CC(C)COc1nc(N)c2ncn(C3CCCCC3)c2n1 [iso-C4 H9 O] |  | > 3 mg/kg | 
CCCOc1nc(N)c2ncn(C3C=CCCC3)c2n1 (stereo not shown) [n-C3 H7 O] | 5.9 | 2.0 mg/kg | ABP/ITP ([1]; Intraduodenal): 2.0; ABP lowering, ED20 (20% reduction) ([2]; Intraduodenal): 2.4 mg/kg
CCCOc1nc(N)c2ncn(C3CCCCC3)c2n1 [n-C3 H7 O] | 12 | 4.4 mg/kg | ABP/ITP ([1]; Intraduodenal): 15; ABP lowering, ED20 (20% reduction) ([2]; Intraduodenal): 18 mg/kg
CCCCOc1nc(N)c2ncn(C3C=CCCC3)c2n1 (stereo not shown) [n-C4 H9 O] | > 4.8 | > 3 mg/kg | 
CCCCOc1nc(N)c2ncn(C3CCCCC3)c2n1 [n-C4 H9 O] | 1467 | 4.4 mg/kg | ABP/ITP ([1]; Intraduodenal): 5.9; ABP lowering, ED20 (20% reduction) ([2]; Intraduodenal): 8.3 mg/kg
CCCCCOc1nc(N)c2ncn(C3C=CCCC3)c2n1 (stereo not shown) [n-C5 H11 O] |  | > 3 mg/kg | 
CCCCCOc1nc(N)c2ncn(C3CCCCC3)c2n1 [n-C5 H11 O] |  | > 3 mg/kg | 
CCCCCCOc1nc(N)c2ncn(C3C=CCCC3)c2n1 (stereo not shown) [n-C6 H13 O] |  | 2.7 mg/kg | 
CCCCCCOc1nc(N)c2ncn(C3CCCCC3)c2n1 [n-C6 H13 O] |  | > 3 mg/kg | 
